Test results from patent US11020398B2, “Amino-pyrrolopyrimidinone compounds and methods of use thereof” (ArQule, Inc., priority 2016, dated 2021).
pIC50: −log10 of the molar value. Each block holds one compound with its values, some of them ahead of it.

Molecular target: phosphorylated form of full length BTK (active BTK) (Homo sapiens (Human), UniProt Q06187)
Assay: Mobility shift assay (MSA, Caliper LabChip), active BTK assay
Format: biochemical
Conditions: Assay type B (MSA using active BTK)

phosphorylated form of full length BTK (active BTK), sequence (Q06187 whole entry): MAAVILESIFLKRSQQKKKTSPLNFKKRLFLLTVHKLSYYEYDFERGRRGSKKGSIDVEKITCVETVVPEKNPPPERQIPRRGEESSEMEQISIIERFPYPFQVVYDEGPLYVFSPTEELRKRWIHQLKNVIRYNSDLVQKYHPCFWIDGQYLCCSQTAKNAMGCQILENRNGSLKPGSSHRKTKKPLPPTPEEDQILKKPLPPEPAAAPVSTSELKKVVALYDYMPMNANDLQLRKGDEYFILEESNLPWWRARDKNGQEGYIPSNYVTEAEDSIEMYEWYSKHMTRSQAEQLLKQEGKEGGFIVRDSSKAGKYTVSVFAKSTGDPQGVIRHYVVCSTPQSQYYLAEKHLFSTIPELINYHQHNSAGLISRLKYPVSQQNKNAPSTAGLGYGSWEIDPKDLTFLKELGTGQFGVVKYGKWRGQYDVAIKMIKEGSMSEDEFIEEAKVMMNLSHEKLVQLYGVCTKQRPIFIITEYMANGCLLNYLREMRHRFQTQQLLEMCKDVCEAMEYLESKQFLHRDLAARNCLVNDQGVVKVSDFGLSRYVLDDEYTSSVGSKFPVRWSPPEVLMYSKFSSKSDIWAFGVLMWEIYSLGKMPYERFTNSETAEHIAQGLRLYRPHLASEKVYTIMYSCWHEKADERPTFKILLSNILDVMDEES

Compound: O=C(c1ccc(Oc2ccccc2)cc1Cl)c1c[nH]c2ncnc(N[C@H]3C[C@H](CO)C3)c12 [Compound I-207, (2-chloro-4-phenoxyphenyl)(4-((trans-3-(hydroxymethyl)cyclobutyl)amino)-7H-pyrrolo[2,3-d]pyrimidin-5-yl)methanone]
pIC50: 8.39

Compound: C[C@H](O)C(=O)NC[C@@H]1CC[C@@H](Nc2ncnc3[nH]cc(C(=O)c4ccc(Oc5ccccc5)cc4)c23)CO1 [Compound I-211, (S)-2-hydroxy-N-(((2S,5R)-5-((5-(4-phenoxybenzoyl)-7H-pyrrolo[2,3-d]pyrimidin-4-yl)amino)tetrahydro-2H-pyran-2-yl)methyl)propanamide]
pIC50: 8.54

Compound: C[C@H](NC(=O)[C@@H](C)O)[C@@H]1CC[C@@H](Nc2ncnc3[nH]cc(C(=O)c4ccc(Oc5ccccc5)cc4)c23)CO1 [Compound I-215, (R)-2-hydroxy-N-((S)-1-((2S,5R)-5-((5-(4-phenoxybenzoyl)-7H-pyrrolo[2,3-d]pyrimidin-4-yl)amino)tetrahydro-2H-pyran-2-yl)ethyl)propanamide]
pIC50: 8.41

Compound: C[C@@H](O)C(=O)NC[C@@H]1CC[C@@H](Nc2ncnc3[nH]cc(C(=O)c4ccc(Oc5ccccc5)cc4Cl)c23)CO1 [Compound I-216, (R)—N-(((2S,5R)-5-((5-(2-chloro-4-phenoxybenzoyl)-7H-pyrrolo[2,3-d]pyrimidin-4-yl)amino)tetrahydro-2H-pyran-2-yl)methyl)-2-hydroxypropanamide]
pIC50: 8.72

Continued by rising pIC50, values first:

pIC50: 8.40
Compound: C[C@H](O)C(=O)N[C@@H](C)[C@@H]1CC[C@@H](Nc2ncnc3[nH]cc(C(=O)c4ccc(Oc5ccccc5)cc4)c23)CO1 [Compound I-209, (S)-2-hydroxy-N-((S)-1-((2S,5R)-5-((5-(4-phenoxybenzoyl)-7H-pyrrolo[2,3-d]pyrimidin-4-yl)amino)tetrahydro-2H-pyran-2-yl)ethyl)propanamide]

pIC50: 8.49
Compound: C[C@@H](O)C(=O)NC[C@@H]1CC[C@@H](Nc2ncnc3[nH]cc(C(=O)c4ccc(Oc5ccccc5)cc4)c23)CO1 [Compound I-217, (R)-2-hydroxy-N-(((2S,5R)-5-((5-(4-phenoxybenzoyl)-7H-pyrrolo[2,3-d]pyrimidin-4-yl)amino)tetrahydro-2H-pyran-2-yl)methyl)propanamide]

pIC50: 8.51
Compound: C[C@H](O)C(=O)N[C@@H](C)[C@@H]1CC[C@@H](Nc2ncnc3[nH]cc(C(=O)c4ccc(Oc5ccccc5)cc4Cl)c23)CO1 [Compound I-208, (S)—N—((S)-1-((2S,5R)-5-((5-(2-chloro-4-phenoxybenzoyl)-7H-pyrrolo[2,3-d]pyrimidin-4-yl)amino)tetrahydro-2H-pyran-2-yl)ethyl)-2-hydroxypropanamide]

pIC50: 8.60
Compound: C[C@H](NC(=O)[C@@H](C)O)[C@@H]1CC[C@@H](Nc2ncnc3[nH]cc(C(=O)c4ccc(Oc5ccccc5)cc4Cl)c23)CO1 [Compound I-213, (R)—N—((S)-1-((2S,5R)-5-((5-(2-chloro-4-phenoxybenzoyl)-7H-pyrrolo[2,3-d]pyrimidin-4-yl)amino)tetrahydro-2H-pyran-2-yl)ethyl)-2-hydroxypropanamide]

pIC50: 8.72
Compound: C[C@H](O)C(=O)NC[C@@H]1CC[C@@H](Nc2ncnc3[nH]cc(C(=O)c4ccc(Oc5ccccc5)cc4Cl)c23)CO1 [Compound I-210, (S)—N-(((2S,5R)-5-((5-(2-chloro-4-phenoxybenzoyl)-7H-pyrrolo[2,3-d]pyrimidin-4-yl)amino)tetrahydro-2H-pyran-2-yl)methyl)-2-hydroxypropanamide]
